Results published in ChEMBL document CHEMBL1146253, “A distal methyl substituent attenuates mitochondrial protein synthesis inhibition in oxazolidinone antibacterials” (Bioorg Med Chem Lett, 2007).
Converted amounts (≈) assume the structure as drawn.

What was measured:
Assay type in all cases: functional
[1] = test system: Enterococcus faecalis; experiment: Antibacterial activity against Enterococcus faecalis by broth microdilution method
[2] = test system: Staphylococcus aureus; experiment: Antibacterial activity against Staphylococcus aureus by broth microdilution method
[3] = test system: Streptococcus pneumoniae; experiment: Antibacterial activity against Streptococcus pneumoniae by broth microdilution method
[4] = test system: Escherichia coli; experiment: Intrinsic binding affinity to Escherichia coli ribosmes by TnT assay

Row | MIC90 [1] | MIC90 [2] | MIC90 [3] | IC50 [4] | SMILES
1 | 2 µg/mL (≈ 5.41 µM) | 4 µg/mL (≈ 10.8 µM) | 2 µg/mL (≈ 5.41 µM) | 2700 nM | CCC1(O)CN(c2c(F)cc(N3C[C@H](CNC(C)=O)OC3=O)cc2F)C1
2 | 1 µg/mL (≈ 2.46 µM) | 2 µg/mL (≈ 4.92 µM) | 1 µg/mL (≈ 2.46 µM) |  | CC(=O)NC[C@H]1CN(c2cc(F)c(N3CCC(C)(CC#N)CC3)c(F)c2)C(=O)O1
3 | 2 µg/mL (≈ 4.89 µM) | 4 µg/mL (≈ 9.77 µM) | 2 µg/mL (≈ 4.89 µM) | 2400 nM | CC(=O)NC[C@H]1CN(c2cc(F)c(N3CC(O)(C(F)(F)F)C3)c(F)c2)C(=O)O1
4 | 2 µg/mL (≈ 5.22 µM) | 4 µg/mL (≈ 10.4 µM) | 1 µg/mL (≈ 2.61 µM) | 2100 nM | CC(=O)NC[C@H]1CN(c2cc(F)c(N3CCC(C)(O)CC3)c(F)c2)C(=O)O1
5 | 4 µg/mL (≈ 11.3 µM) | 4 µg/mL (≈ 11.3 µM) | 1 µg/mL (≈ 2.81 µM) | 3400 nM | CC(=O)NC[C@H]1CN(c2cc(F)c(N3CC(C)(O)C3)c(F)c2)C(=O)O1
6 | 2 µg/mL (≈ 5.03 µM) | 4 µg/mL (≈ 10.1 µM) | 1 µg/mL (≈ 2.52 µM) | 2100 nM | CCC1(O)CCN(c2c(F)cc(N3C[C@H](CNC(C)=O)OC3=O)cc2F)CC1
7 | 2 µg/mL (≈ 5.83 µM) | 2 µg/mL (≈ 5.83 µM) | 1 µg/mL (≈ 2.91 µM) | 1400 nM | CC(=O)NC[C@H]1CN(c2cc(F)c(N3CC(F)C3)c(F)c2)C(=O)O1
8 | 2 µg/mL (≈ 5.41 µM) | 2 µg/mL (≈ 5.41 µM) | 1 µg/mL (≈ 2.71 µM) | 1700 nM | CC(=O)NC[C@H]1CN(c2cc(F)c(N3CCC(O)CC3)c(F)c2)C(=O)O1
9 | 1 µg/mL (≈ 2.55 µM) | 2 µg/mL (≈ 5.1 µM) | 1 µg/mL (≈ 2.55 µM) | 1600 nM | CC(=O)NC[C@H]1CN(c2cc(F)c(N3CCC(CC#N)CC3)c(F)c2)C(=O)O1
10 | 2 µg/mL (≈ 5.63 µM) | 2 µg/mL (≈ 5.63 µM) | 1 µg/mL (≈ 2.81 µM) | 2600 nM | COC1CN(c2c(F)cc(N3C[C@H](CNC(C)=O)OC3=O)cc2F)C1
11 | 2 µg/mL (≈ 5.6 µM) | 4 µg/mL (≈ 11.2 µM) | 1 µg/mL (≈ 2.8 µM) | 2300 nM | CC(=O)NC[C@H]1CN(c2cc(F)c(N3CC(C)(F)C3)c(F)c2)C(=O)O1
12 | 2 µg/mL (≈ 5.86 µM) | 2 µg/mL (≈ 5.86 µM) | 1 µg/mL (≈ 2.93 µM) | 1900 nM | CC(=O)NC[C@H]1CN(c2cc(F)c(N3CC(O)C3)c(F)c2)C(=O)O1
13 | 4 µg/mL (≈ 10.8 µM) | 4 µg/mL (≈ 10.8 µM) | 1 µg/mL (≈ 2.71 µM) | 3700 nM | COC1(C)CN(c2c(F)cc(N3C[C@H](CNC(C)=O)OC3=O)cc2F)C1

Row | SMILES | MIC90 [1] | MIC90 [2] | MIC90 [3] | IC50 [4]
14 | CC(=O)NC[C@H]1CN(c2ccc(N3CCOCC3)c(F)c2)C(=O)O1 [LINEZOLID] | 4 µg/mL (≈ 11.9 µM) | 4 µg/mL (≈ 11.9 µM) | 1 µg/mL (≈ 2.96 µM) | 
